In US20220362249A1, “METHODS FOR TREATING […]” (PTC Therapeutics MP, Inc., priority 2019, published 2022):
Read-outs that look alike come from different tables or passages of the source.

How the values were obtained:
Format in all cases: in vivo, human
[1] = Adverse events in patients with PKU on PTC923 or sapropterin dihydrochloride; details: for Headache (all-cause AE): transient
Source text: PTC923 safety was monitored and adverse events (AEs) were coded using the Medical Dictionary for Regulatory Activities (MedDRA®) version 21.0. Treatment-emergent adverse events (TEAEs) were defined as AE that began on or after first dose of study drug. A TEAE was associated with the study treatment currently being received, or the last study treatment before its onset. A treatment-related TEAE was, in the judgment of the investigator possibly, probably or definitely related to treatment. A serious AE (SAE) was defined as resulting in death, life-threatening AE, inpatient hospitalization or prolongation of existing hospitalization, a persistent or significant disability/incapacity or a substantial disruption of the ability to conduct normal life functions, or a congenital anomaly/birth defect.

[2] = Food effect on administration of sepiapterin: plasma sepiapterin and BH4 concentrations, fasted vs fed; details: sepiapterin 10 mg/kg oral; for concentration at 0 h / concentration at 0.5 h / concentration at 1 h / concentration at 2 h / concentration at 4 h / concentration at 8 h / concentration at 12 h / concentration at 24 h: human, oral, 10 mg/kg; for concentration at 0 h: 0 h (predose)
Procedure: Method: Subjects received 2 oral doses of sepiapterin (10 mg/kg) separated by 1 week in a fasted and fed state. Subjects were fed a standard high-fat (approximately 50 percent of total caloric content of the meal) and high-calorie (approximately 800 to 1000 calories) meal starting 30 minutes prior to receiving their second oral dose of sepiapterin on Day 8.
Sampling for PK analysis occurred predose on Days 1 and 8 (within 30 minutes before dosing) and 0.5 hr, 1 hr, 2 hr, 4 hr, 8 hr, 12 hr, and 24 hr after the doses on Days 1 and 8. The blood concentrations of sepiapterin and BH4 were analyzed by MNG Labs.

[3] = Pharmacokinetic analysis of multiple doses of sepiapterin (once daily for 7 days, fed subjects)
Source text: Methods: Three cohorts of eight fed subjects each were randomized to receive once-daily sepiapterin or placebo for 7 days in a 6:2 ratio. A sentinel dose strategy was also used for administration of the highest sepiapterin dose.

[4] = plasma, fasted, read-out: Concentration in Plasma, Maximum
[5] = plasma, fasted, read-out: Concentration in Plasma, Mean
[6] = plasma, fasted, read-out: Concentration in Plasma, Median
[7] = plasma, fasted, read-out: Concentration in Plasma, Minimum
[8] = plasma, fed (high-fat meal), read-out: Concentration in Plasma, Maximum
[9] = plasma, fed (high-fat meal), read-out: Concentration in Plasma, Mean
[10] = plasma, fed (high-fat meal), read-out: Concentration in Plasma, Median
[11] = plasma, fed (high-fat meal), read-out: Concentration in Plasma, Minimum

C[C@H](O)C(=O)C1=Nc2c(nc(N)[nH]c2=O)NC1 [sepiapterin, Sepiapterin]
Patients reporting any adverse event ([1]; 20 mg/kg): 25% | Patients reporting severe AE ([1]; 20 mg/kg): 4% | Patients reporting treatment-related AE ([1]; 20 mg/kg): 0% | Headache (all-cause AE) ([1]; 20 mg/kg): 4% | Patients reporting any adverse event ([1]; 60 mg/kg): 29% | Patients reporting severe AE ([1]; 60 mg/kg): 0% | Patients reporting treatment-related AE ([1]; 60 mg/kg): 13% | Headache (all-cause AE) ([1]; 60 mg/kg): 17% | concentration at 0 h [2, 4]: 0 nM | concentration at 0 h [2, 5]: 0 nM | concentration at 0 h [2, 6]: 0 nM | concentration at 0 h [2, 7]: 0 nM | concentration at 0.5 h [2, 4]: 7.23 nM | concentration at 0.5 h [2, 5]: 2.85 nM | concentration at 0.5 h [2, 6]: 2.32 nM | concentration at 0.5 h [2, 7]: 0 nM | concentration at 1 h [2, 4]: 10.2 nM | concentration at 1 h [2, 5]: 5.43 nM | concentration at 1 h [2, 6]: 4.82 nM | concentration at 1 h [2, 7]: 3.15 nM | concentration at 2 h [2, 4]: 6.65 nM | concentration at 2 h [2, 5]: 4.63 nM | concentration at 2 h [2, 6]: 4.71 nM | concentration at 2 h [2, 7]: 2.52 nM | concentration at 4 h [2, 4]: 3.93 nM | concentration at 4 h [2, 5]: 1.88 nM | concentration at 4 h [2, 6]: 2.37 nM | concentration at 4 h [2, 7]: 0 nM | concentration at 8 h [2, 4]: 0 nM | concentration at 8 h [2, 5]: 0 nM | concentration at 8 h [2, 6]: 0 nM | concentration at 8 h [2, 7]: 0 nM | concentration at 12 h [2, 4]: 0 nM | concentration at 12 h [2, 5]: 0 nM | concentration at 12 h [2, 6]: 0 nM | concentration at 12 h [2, 7]: 0 nM | concentration at 24 h [2, 4]: 0 nM | concentration at 24 h [2, 5]: 0 nM | concentration at 24 h [2, 6]: 0 nM | concentration at 24 h [2, 7]: 0 nM | concentration at 0 h [2, 8]: 0 nM | concentration at 0 h [2, 9]: 0 nM | concentration at 0 h [2, 10]: 0 nM | concentration at 0 h [2, 11]: 0 nM | concentration at 0.5 h [2, 8]: 3.22 nM | concentration at 0.5 h [2, 9]: 0.63 nM | concentration at 0.5 h [2, 10]: 0 nM | concentration at 0.5 h [2, 11]: 0 nM | concentration at 1 h [2, 8]: 4.57 nM | concentration at 1 h [2, 9]: 2.38 nM | concentration at 1 h [2, 10]: 2.42 nM | concentration at 1 h [2, 11]: 0 nM | concentration at 2 h [2, 8]: 5.92 nM | concentration at 2 h [2, 9]: 2.96 nM | concentration at 2 h [2, 10]: 2.91 nM | concentration at 2 h [2, 11]: 0 nM | concentration at 4 h [2, 8]: 5.56 nM | concentration at 4 h [2, 9]: 2.96 nM | concentration at 4 h [2, 10]: 2.5 nM | concentration at 4 h [2, 11]: 0 nM | concentration at 8 h [2, 8]: 2.19 nM | concentration at 8 h [2, 9]: 0.18 nM | concentration at 8 h [2, 10]: 0 nM | concentration at 8 h [2, 11]: 0 nM | concentration at 12 h [2, 8]: 0 nM | concentration at 12 h [2, 9]: 0 nM | concentration at 12 h [2, 10]: 0 nM | concentration at 12 h [2, 11]: 0 nM | concentration at 24 h [2, 8]: 0 nM | concentration at 24 h [2, 9]: 0 nM | concentration at 24 h [2, 10]: 0 nM | concentration at 24 h [2, 11]: 0 nM | Geometric mean ratio (fasted/fed, 90% CI) for AUClast ([2]; plasma): 1.29 (0.84 to 2.00) | Geometric mean ratio (fasted/fed, 90% CI) for Cmax ([2]; plasma): 1.57 (1.21 to 2.0) | Cmax in the plasma, fed compared to fasted subjects (in words) [2]: much lower | Cmax ([3]; Day 1, sepiapterin 20 mg/kg once daily, fed): 1.2 ng/mL | AUC0-24 ([3]; Day 7, sepiapterin 60 mg/kg once daily, fed): 23 ng·h/mL | Drug accumulation after 1 and 7 days of treatment (in words) ([3]; once-daily sepiapterin for 7 days): no drug accumulation
